Like-named read-outs stand apart in the source and are kept apart here.
Assay: Aqueous solvolysis reactivity followed by UV
Type: physicochemical
Details: for half-life: read-out: solvolysis half-life t1/2 (converted)
Experimental: The reactivity of 217-219 was assessed by following the solvolysis spectrophotometrically by UV at both pH 3 (50% CH3 OH-buffer, buffer=4:1:20 (v/v/v) 0.1 M citric acid, 0.2 M Na2 HPO4, H2 O) and pH 7 (1:1 H2 O--CH3 OH) measuring both the disappearance of the long-wavelength absorption band of the F2 CBI chromophore and the appearance of a short-wavelength absorption band attributable to the ring open products (FIG. 31).
Aqueous Solvolysis Reactivity. pH 3: N-BOC-CCBI (25, 100 μg) was dissolved in CH3 OH (1.5 mL) and mixed with pH 3 aqueous buffer (1.5 mL). The buffer contained 4:1:20 (v:v:v) 0.1 M citric acid, 0.2 M Na2 HPO4 and H2 O, respectively. The solvolysis solution was sealed and kept at 25° C. protected from light. The UV spectrum was measured at regular intervals every 2 h during the first day, every 12 h for another week, and every 24 h for an additional week. The decrease in the long-wavelength absorption at 322 nm and the increase in the short-wavelength absorption at 268 nm were monitored, FIG. 1.
pH 2: Samples of 25 (100 μg) and 26 (50 μg) were dissolved in CH3 OH (1.5 mL) and the solutions were mixed with aqueous buffer (pH 2.05, 1.5 mL). The buffer contained 4:1:20 (v:v:v) 1.0 M citric acid, 0.2 M Na2 HPO4, and H2 O, respectively. Immediately after mixing, the UV spectra of the solutions were measured against a reference solution containing CH3 OH (1.5 mL) and the aqueous buffer (1.5 mL) and these readings were used for the initial absorbance values. The solutions were stoppered, protected from the light, and allowed to stand at 25° C. UV spectra were recorded at regular intervals until constant values were obtained for the long and short wavelength absorbances. The solvolysis rate constants were determined from the slope of the lines obtained from linear least squares treatment of plots of ln[(Af -Ai)/(Af -A)] versus time using the short wavelength measurements for 25 and long wavelength measurements for 26).

[1] = pH 2 (buffer pH 2.05), CH3OH-buffer 1:1, 25° C.

Question: Which results are given for `CC(C)(C)OC(=O)N1CC2CC23C1=CC(=O)c1ccc(C#N)cc13` (stereo not shown) [compound 25, N-(tert-Butyloxycarbonyl)-7-cyano-1,2,9,9a-tetrahydrocyclopropa[c]benz[e]indol-4-one]?
Answer: first order solvolysis rate constant [1]: 7.94e-06 s⁻¹; half-life [1]: 24.2 h; solvolysis rate constant k (pH 3, 50% CH3OH-buffer): 9.9e-07 s⁻¹; half-life (pH 3, 50% CH3OH-buffer): 213 h

Reference: patent US6060608A, “Analogs of CC-1065 and the duocarmycins” (The Scripps Research Institute, priority 1999, dated 2000)
